Assay [1] has as its system Septoria tritici. Put plainly: G1. Preventative control of leaf blotch on wheat caused by Septoria tritici (Septtr P1), green house. The class given is in vivo. The conditions noted are these: 300 pm active substance, % diseased leaf area, untreated control 90%. How it is done: The spray solutions were prepared in several steps:
The stock solution were prepared: a mixture of acetone and/or dimethylsulfoxide and the wetting agent/emulsifier Wettol, which is based on ethoxylated alkylphenoles, in a relation (volume) solvent-emulsifier of 99 to 1 was added to 25 mg of the compound to give a total of 5 ml. Water was then added to total volume of 100 ml.
This stock solution was diluted with the described solvent-emulsifier-water mixture to the given concentration.
G1. Preventative Control of Leaf Blotch on Wheat Caused by Septoria tritici (Septtr P1)
Leaves of pot-grown wheat seedling were sprayed to run-off with an aqueous suspension of the active compound or their mixture, prepared as described. The plants were allowed to air-dry. The next day the plants were inoculated with an aqueous spore suspension of Septoria tritici. Then the trial plants were immediately transferred to a humid chamber at 18-22° C. and a relative humidity close to 100%. After 4 days the plants were transferred to a chamber with 18-22° C. and a relative humidity close to 70%. After 4 weeks the extent of fungal attack on the leaves was visually assessed as % diseased leaf area.

Assay [2] relates to Botritis cinerea. Put plainly: G4. Preventative fungicidal control of Botritis cinerea on leaves of green pepper (Botrci P1), green house. It counts as in vivo. To be noted: 300 pm active substance, % diseased leaf area, untreated control 90%. Here is the method: 1) Green House The spray solutions were prepared in several steps: The stock solution were prepared: a mixture of acetone and/or dimethylsulfoxide and the wetting agent/emulsifier Wettol, which is based on ethoxylated alkylphenoles, in a relation (volume) solvent-emulsifier of 99 to 1 was added to 25 mg of the compound to give a total of 5 ml. Water was then added to total volume of 100 ml. This stock solution was diluted with the described solvent-emulsifier-water mixture to the given concentration. G4. Preventative fungicidal control of Botritis cinerea on leaves of green pepper (Botrci P1 Young seedlings of green pepper were grown in pots to the 4 to 5 leaf stage. These plants were sprayed to run-off with an aqueous suspension, containing the concentration of active ingredient or their mixture mentioned in the table below. The next day the plants were inoculated with a aqueous biomalt solution containing the spore suspension of Botritis cinerea. Then the plants were immediately transferred to a humid chamber. After 5 days at 22 to 24° C. and a relative humidity close to 100% the extent of fungal attack on the leaves was visually assessed as % diseased leaf area.

For assay [3], the system named is Septoria tritici. Put plainly: M1. Microtest: activity against leaf blotch on wheat caused by Septoria tritici (Septtr), micro titer plate growth. To be noted: 405 nm, 7 days after inoculation, relative growth vs active compound-free control (100%). It counts as cell-based. How it is done:
Microtest The active compounds were formulated separately as a stock solution having a concentration of 10000 ppm in dimethyl sulfoxide. M1. Activity Against Leaf Blotch on Wheat Caused by Septoria tritici (Septtr) The stock solutions were mixed according to the ratio, pipetted onto a micro titer plate (MTP) and diluted with water to the stated concentrations. A spore suspension of Septoria tritici in an aqueous biomalt or yeast-bactopeptone-glycerine solution was then added. The plates were placed in a water vapor-saturated chamber at a temperature of 18° C. Using an absorption photometer, the MTPs were measured at 405 nm 7 days after the inoculation. The measured parameters were compared to the growth of the active compound-free control variant (100%) and the fungus-free and active compound-free blank value to determine the relative growth in % of the pathogens in the respective active compounds

Each structure is given as a SMILES string.

On to `C=CCOC(Cn1cncn1)c1ccc(Oc2ccc(Cl)cc2)cc1Cl` (stereo not drawn), for which the “Disease (%) at 300 pm Septtr P1” value in assay [1] stood at 30%. Further, the “Disease (%) at 300 pm Botrci P1” value in assay [2] was 30%. For the molecule `COC(Cn1cncn1)c1ccc(Oc2ccc(Cl)cc2)cc1Cl` (stereo not drawn), the “Growth (%) at 0.002 ppm Septtr” value in assay [3] is 72%. The “Disease (%) at 300 pm Septtr P1” value in assay [1] is listed as 40%. As for `C#CC(Cn1cncn1)(OC)c1ccc(Oc2ccc(Cl)cc2)cc1Cl` (stereo not drawn) [I-1], in assay [3], the “Growth (%) at 0.002 ppm Septtr” value was determined as 14%. Turning to `C=CC(Cn1cncn1)(OC)c1ccc(Oc2ccc(Cl)cc2)cc1Cl` (stereo not drawn) [I-7, 1-[2-[2-chloro-4-(4-chlorophenoxy)phenyl]-2-methoxy-but-3-enyl]-1,2,4-triazole], the “Disease (%) at 300 pm Septtr P1” value in assay [1] worked out at 0%. On the same count and under the same terms, then `C=CCOC(C=C)(Cn1cncn1)c1ccc(Oc2ccc(Cl)cc2)cc1Cl` (stereo not drawn) [I-8], with 0%. With `C=CCOC(C#CC)(Cn1cncn1)c1ccc(Oc2ccc(Cl)cc2)cc1Cl` (stereo not drawn) [I-12], in assay [1], the “Disease (%) at 300 pm Septtr P1” value was 0%. The “Disease (%) at 300 pm Botrci P1” value in assay [2] is recorded as 0%.

For the origin of these results see US9247747B2, “Fungicidal substituted 1-{2-[2-halo-4-(4-halogen-phenoxy)-phenyl]-2-alkoxy-2-alkynyl/alkenyl-ethyl}-1H-[1,2,4]triazole compounds” (BASF SE, priority 2011, dated 2016).
